# Tests used:
# [1] = system: MEF2 transcription factor; experiment: MEF2-dependent transcription luciferase activity (pGL3-4xMEF transfection); type: cell-based; conditions: Neuro 2A cells; inhibitor added with HMB; FIGS. 5B-5D
# Method: For the transfection experiments in this Example, Neuro-2A cells were used at 80-90% confluence grown in Dulbecco's Modified Eagle's medium (DMEM). Cells were exposed for 5 hours to plasmid pGL3-4×MEF, which contains 4 copies in tandem of the MEF2D binding DNA sequence prior to the sequence of DNA which codes for firefly luciferase. Effectors were added to the medium for 18 h and luciferase activity was determined. For the study of inhibition of signaling factors, inhibitors of the phosphatidyl-inositol 3 kinase (LY294002), ERK 1/2 (PD98059) and mTORC1 activations (rapamycin) were added to the cells.
# Data are expressed as mean±SEM. Student t-test was used to analyze the results.
# [2] = HMB concentration over time in brain interstitial fluid (hippocampus microdialysis) after oral administration; type: in vivo, Sprague-Dawley rats
# Method: In this Example, the appearance of HMB and its concentration over time in brain interstitial fluid were analyzed after oral administration of HMB.
# Initially, Sprague-Dawley rats (Charles River, France) weighing 400-500 g were housed in cages at constant room temperature (22±2° C.) and 45-55% humidity under a regular 12-hour light/dark schedule. Food and water were freely available. Procedures involving animals and their care were conducted in conformity with the institutional guidelines that are in compliance with national laws and EC policies for the Care and Use of Laboratory Animals (RD 2101-2005, 86/609/CEE).
# A guide cannula was stereotaxically inserted into the hippocampus area of each anesthetized rat at the coordinates described in a stereotaxic atlas for rats. The rats were allowed to recover from surgery for at least three days. On the first day of the experiment, a brain microdialysis probe (MD-2204, BR-4, 4 mm membrane, available from BASi, West Lafayette, Ind.) was inserted into the guide cannula of each rat. The probe was perfused with Ringer's solution (aCFS Harvard apparatus, #597316) at a constant rate of 2 μl/min. The rat was left in the cage with space for relatively free movement. Samples of dialysate were automatically collected every twenty minutes. A bolus dose of HMB (250 mg/kg body weight) was given by gavage 100 min after starting the experiment and sampling was continued for another 160-220 min.
# HMB was measured using UPLC-MS. Specifically, samples of 30-40 μl in aCSF were microfiltered through a 0.2 μm nylon filter, diluted with an equal amount of water, and then injected into the UPLC-TQD (Acuity-TQD system available from Waters Corporation, Milford, Mass.). HMB was analyzed using a BEH Hillic column 1.7 μm; 2.1×150 mm using a gradient consisting of H2O:MeCN 0.1% formic acid. The mass spectrometer was set to Ion Mode ES+.
# Neuro-2A cells = experiment: Rate of protein synthesis, incorporation of [3H]-tyrosine into cellular protein pool; type: cell-based; conditions: HMB vs. Control, FIG. 4
# Method: The effect of HMB on the rate of protein synthesis in Neuro-2A cells was determined by measuring the incorporation of [3H]-tyrosine into cellular protein pool. The phosphorylative status of mTOR and up/down-protein kinases (Akt, ERK 1/2) was determined by western blot. The cell proliferation/viability was determined with the MTT (3-(4,5-dimethylthiazol-2-yl)-2,5-diphenyltetrazolium bromide) colorimetric assay. Data are expressed as mean±SEM. Student t-test was used to analyze the results.
SMILES,effect of inhibitor on the HMB-mediated increase in MEF2 [1],"crossing of the blood brain barrier ([2]; oral administration, microdialysis model in rats)","maximum concentration of HMB measured in brain microdialysates ([2]; rat 1, 250 mg/kg bolus by gavage) [ppm]","time after administration at which HMB appeared in the brain ([2]; rat 1, 250 mg/kg bolus by gavage, brain microdialysate (fraction 7)) [min]","HMB concentration level at end of sampling ([2]; rat 1, more than 2.5 hours after the gavage)","maximum concentration of HMB in brain microdialysates ([2]; rat 2, 250 mg/kg bolus by gavage)","fraction in which HMB was detected for the first time ([2]; rat 2, 250 mg/kg by gavage at fraction 5, 20 min fractions)","HMB concentration level at end of experiment ([2]; rat 2, more than 3.5 h after the gavage)",increase on the protein synthesis (Neuro-2A cells) [%]
COc1cccc(-c2cc(=O)c3ccccc3o2)c1N [PD98059],totally blocked,,,,,,,,
"CC(C)(O)CC(=O)O [HMB, beta-hydroxy-beta-methylbutyrate]",,able to cross the blood brain barrier,10.5,40,had not decreased,more than 4 ppm,fraction 7,had not yet reached basal level,20

# — patent US9326956B2, “Methods for improving brain development and cognitive function using beta-hydroxy-beta methylbutyrate” (Abbott Laboratories, priority 2011, dated 2016)
